Entries after “also recorded” stand apart in the source; their conditions may differ.
Experiments:
[1] = tested on: rats with oxygen-induced retinopathy (OIR); assay: Electroretinography in rats with oxygen-induced retinopathy (Example 1); type: in vivo, rat (Sprague-Dawley)
From the text: Rats with oxygen-induced retinopathy (OIR) are a common model of human retinopathy of prematurity (ROP). Both OIR and ROP are characterized by abnormal retinal vasculature and by lasting dysfunction of the neural retina. Recent findings in OIR rats imply a causal role for the rods in the ROP disease process. However, experimental manipulation of rod function is necessary to establish this role conclusively. The retinoid composition N-Retinylacetamide (all trans), of chemical composition C22H33NO “the drug” was administered in the rat OIR model of ROP.
OIR was induced in four litters of Sprague-Dawley pups (N=24) by exposure to alternating periods of 50% and 10% oxygen from the day of birth (P0) to P14. The light cycle was 12 hr light (10-30 lux) and 12 hr dark; the light-to-dark transition coincided with each oxygen alternation. For 15 days beginning P7, within one hour of this transition, the first and fourth litters were administered 6 mg/kg drug IP; the second and third litters received only vehicle. At P20-22, when marked retinal vascular abnormality is generally observed, electroretinograms were recorded and receptor and post-receptor function evaluated. Treatment effects were evaluated by ANOVA.

[2] = tested on: rats with oxygen-induced retinopathy (OIR); assay: ERG of rod and rod-mediated neural function in the dark-adapted retina of OIR rats (Example 2); type: in vivo, rat (Sprague-Dawley); settings: for magnitude of the rod response (Rmp3): p<0.001, most markedly at P30-32, vs vehicle; for recovery from phototransduction, latency to 50% recovery τ: double-flash paradigm
Method: (§1) Retinopathy was induced in Sprague-Dawley pups (N=46) by exposing them to alternating 24 hour periods of 50±1% and 10±1% oxygen from the day of birth to postnatal day (P) 14 as shown in FIG. 1. The light cycle was controlled at 12 hours 10-30 lux and 12 hours dark, except during test days when constant darkness was maintained. The light-to-dark transition was timed to coincide with each oxygen alternation. For two weeks, beginning on P7, during this transition, the first and fourth litters were injected intraperitoneally with 6 mg*kg-1 Ret-NH2; the second and third litters were administered an equivalent volume of vehicle (20% dimethyl sulfoxide, DMSO) alone. The injection schedule was designed to continue over the age range that begins with the onset of rapid increase in the rhodopsin content of the retina and lasts until rhodopsin content exceeds 50% of its adult amount (A. B. Fulton, and B. N. Baker, Invest Ophthalmol Vis Sci (1984) 25:647). […] The rats were assessed following a longitudinal design with tests at P20-22, P30-32, and P60-62. These dates were selected because they capture the height of vascular abnormality, a period of marked recovery, and an adult age, respectively (J. D. Akula, et al., Invest Ophthalmol Vis Sci (2007) 48:4351). At each test age, we studied the function of the neural retina and the morphology of the retinal vasculature using noninvasive techniques.
Shortly (0-2 days) after the final dose, the effects of the drug were assessed on the neural retina by electroretinography (ERG). The timing and intensity of the stimuli, which was designed to assess rod photoreceptor and rod-mediated post-receptor neural function, were under computer control. Two sets of experiments were performed. In the first, rod and rod-mediated neural function in the dark-adapted retina were assessed. In the second, the recovery of the rod photoreceptor from a bright, rhodopsin-bleaching stimulus was assessed. Each set of experiments was performed on approximately half of the subjects from each litter.
Sample traces were recorded these from a P30-32 VCM-treated rat; the sample records in panels D, E, and G were recorded in the same session. Characteristics of the rod photo-response were estimated from the ERG by fitting the Hood and Birch (D. C. Hood, and D. G. Birch, Vis Neurosci (1992) 8:107) formulation of the Lamb and Pugh (T. D. Lamb, and E. N. Pugh, Jr., J Physiol (1992) 449:719; E. N. Pugh, Jr., and T. D. Lamb, Biochim Biophys Acta (1993) 1141:111) model of the biochemical processes involved in the activation of photo-transduction to the a-wave:
P3(i,t)=Rmp3·(1−exp(−½·i·S·(t−td)^2))
In this equation, i is the intensity of the flash (R*) and t is elapsed time (seconds). The free parameters in the model, Rmp3, S, and td, were ensemble fitted using a square error minimization routine. Rmp3 is the amplitude (μV) of the saturated rod response; it is proportional to the magnitude of the dark current and depends upon the number of channels available for closure by light in the ROS (T. D. Lamb, and E. N. Pugh, Jr., J Physiol (1992) 449:719; E. N. Pugh, Jr., and T. D. Lamb, Biochim Biophys Acta (1993) 1141:111). S is a sensitivity (R*-1*sec-2) parameter that is related to the amplification constant, A, which summarizes the kinetics of the series of processes initiated by the photoisomerization of rhodopsin and resulting in closure of the channels in the plasma membrane of the photoreceptor. td is a brief delay (sec). Fitting of the model was restricted to the leading edge of the a-wave.
Following the study of the activation of phototransduction, deactivation of phototransduction was studied in the same rats using a double-flash paradigm. The time course of the rod response was derived to a green conditioning flash (CF) producing approximately 75 R*. This green flash, while producing an a-wave less than half of the saturated rod response, was nevertheless sufficient to fully suppress the dark current. […]

[3] = tested on: rats with oxygen-induced retinopathy (OIR); assay: Recovery of the rod dark current from a rhodopsin-bleaching stimulus in OIR rats (Example 2); type: in vivo, rat (Sprague-Dawley); settings: 30 second bleaching exposure, 6 mg/kg IP, vs vehicle, t50 often extrapolated
Method: Retinopathy was induced in Sprague-Dawley pups (N=46) by exposing them to alternating 24 hour periods of 50±1% and 10±1% oxygen from the day of birth to postnatal day (P) 14 as shown in FIG. 1. The light cycle was controlled at 12 hours 10-30 lux and 12 hours dark, except during test days when constant darkness was maintained. The light-to-dark transition was timed to coincide with each oxygen alternation. For two weeks, beginning on P7, during this transition, the first and fourth litters were injected intraperitoneally with 6 mg*kg-1 Ret-NH2; the second and third litters were administered an equivalent volume of vehicle (20% dimethyl sulfoxide, DMSO) alone. […] The rats were assessed following a longitudinal design with tests at P20-22, P30-32, and P60-62. […]
Shortly (0-2 days) after the final dose, the effects of the drug were assessed on the neural retina by electroretinography (ERG). […] In the first, rod and rod-mediated neural function in the dark-adapted retina were assessed. In the second, the recovery of the rod photoreceptor from a bright, rhodopsin-bleaching stimulus was assessed. […]
In the second set of experiments, performed on cohorts (n=22), the recovery of the dark current was assessed from a 30 second light exposure estimated to bleach […] of rhodopsin. […] Following the bleaching exposure, the response to the PF was assessed at two minute intervals for 40-50 minutes. […]

[4] = tested on: rats with oxygen-induced retinopathy (OIR); assay: Arteriolar tortuosity from fundus images analysed with RISA in OIR rats (Example 2); type: in vivo, rat (Sprague-Dawley)
Method: as §1
To assess whether VCM treatment affected the retinal vasculature, wide-field images of the ocular fundus were obtained that show the major vessels of the retina following each ERG session. […] The arterioles were analyzed with RISA (R. Gelman, M. E. Invest Ophthalmol Vis Sci (2005) 46: 4734) custom image analysis software. In agreement with previous reports (J. D. Akula, Invest Ophthalmol Vis Sci (2007) 48:4351; K. Liu, et al., Invest Ophthalmol Vis Sci (2006) 47:2639), the venules were little affected by the induction of retinopathy. […] For each rat, the mean blood vessel integrated curvature across both eyes (median 10 arterioles) was determined to provide a measure of arteriolar tortuosity, TA (radians*pixel^−1), a measure which agrees well with subjective assessments in human subjects (R. Gelman, M. E. Invest Ophthalmol Vis Sci (2005) 46: 4734). […] To test this, the value of TA at P20 was subtracted from the value of TA at P60 in each rat to determine the change in arteriolar tortuosity during the course of the experiment.

visual cycle = settings: mouse, dose 6 mg/kg; cited from earlier work
[5] = OIR rats, 6 mg/kg IP for 15 days from P7, ERG at P20-22, vs vehicle

- unfavorable effects of rod function ([2]; 6 mg/kg IP): No unfavorable effects
- magnitude of the rod response (Rmp3) ([2]; 6 mg/kg IP, listed as Ret-NH2, 6 mg/kg): larger
- magnitude of the rod response (Rmp3) ([2]; 6 mg/kg IP, listed as VCM, 6 mg/kg): significantly increased
- post-receptor sensitivity (log σ) ([2]; ERG b-wave, Naka-Rushton fit, 6 mg/kg IP, vs vehicle): not affected
- saturated amplitude of the b-wave (Vm) ([2]; ERG b-wave, Naka-Rushton fit, 6 mg/kg IP, vs vehicle, listed as Ret-NH2, 6 mg/kg): larger
- saturated amplitude of the b-wave (Vm) ([2]; ERG b-wave, Naka-Rushton fit, 6 mg/kg IP, vs vehicle, listed as VCM, 6 mg/kg): significantly (p<0.01) increased
- recovery from phototransduction, latency to 50% recovery τ ([2]; 6 mg/kg IP, vs vehicle, listed as Ret-NH2, 6 mg/kg): faster recovery
- recovery from phototransduction, latency to 50% recovery τ ([2]; 6 mg/kg IP, vs vehicle, listed as VCM, 6 mg/kg): significantly (p<0.01) faster
- effect on rod function ([2]; summary of ERG data): advantageous, if transient, effect
- post-receptor function ([2]; summary of ERG data): transient enhancement
SMILES: CC(=O)NC/C=C(C)/C=C/C=C(C)/C=C/C1=C(C)CCCC1(C)C [N-Retinylacetamide, N-Retinylacetamide (all trans)]
- serious, negative alteration of the photoreceptor response ([1]; OIR rats after treatment, 6 mg/kg IP): no evidence of serious, negative alteration
- effect on responses originating in the inner retina ([1]; OIR rats, 6 mg/kg IP): favorable effect
- amplification constant of phototransduction [1, 5]: Neither the maximal rod response nor the amplification constant of phototransduction were significantly changed
- maximal rod response [1, 5]: Neither the maximal rod response nor the amplification constant of phototransduction were significantly changed
- post-receptor sensitivity (log s) ([1]; OIR rats, 6 mg/kg IP, P20-22, vs vehicle): unchanged
- OFF response to a 400 ms stimulus ([1]; background that suppressed the saturating a-wave by ~90%, drug-treated vs vehicle-treated OIR rats, P20-22): 2 ×
- time-constant of deactivation of phototransduction ([1]; double-flash protocol, OIR rats, 6 mg/kg IP, P20-22, vs vehicle): significantly shorter
- maximal scotopic b-wave amplitude ([1]; drug-treated vs vehicle-treated OIR rats, 6 mg/kg IP, P20-22): twice as large
- cone-driven response to 20 Hz flicker ([1]; same background, drug-treated vs vehicle-treated OIR rats, P20-22): 2 ×
- rod response sensitivity (S) ([2]; 6 mg/kg IP two weeks from P7, tests P20-22, P30-32, P60-62, ANOVA vs vehicle, listed as VCM, 6 mg/kg): no statistically significant effect; also recorded: not significant, but did trend lower at every age
- rod-mediated retinal function (photoreceptor and post-receptor neurons) ([2]; P20-22 and P30-32): improved at the earliest test age (P20-22), and even more markedly improved at the second (P30-32)
- time to 50% recovery of the saturating rod photo-response after bleach (t50) [3]: not significantly altered overall
- arteriolar tortuosity TA, main effect ([4]; OIR rats, 6 mg/kg IP, P20-22 to P60-62, vs vehicle): no main effect
- appearance of vascular abnormalities ([4]; OIR rats, VCM regimen 6 mg/kg IP): did not prevent the appearance of vascular abnormalities
- change in arteriolar tortuosity ΔP60-P20 (vascular recovery) ([4]; TA at P60 minus TA at P20, t-test p=0.001): more than twice the normal amount
- recovery of arteriolar tortuosity TA ([4]; group x age interaction p=0.002, VCM vs vehicle treated rats): recovered more rapidly
- suppression of the visual cycle (visual cycle): approximately 50%
